Assay results from publication PMC11073699, “Odorant receptors for floral- and plant-derived volatiles in the yellow fever mosquito, Aedes aegypti (Diptera: Culicidae)” (PLOS ONE, 2024).
pEC50: −log10 of the molar value. “And” between values parts separate entries of the source, which are not always exact repeats. Equal entries are not always repeated.

Key:
Format in all cases: cell-based
AaegOR13 = target: T1, AaegOR13 (Aedes aegypti, UniProt Q16Z13); assay: Two-electrode voltage clamp of Xenopus laevis oocytes expressing AaegOR13/Orco (blends, unitary compounds, concentration-response); details: unitary compounds; for Normalized response, unitary compounds, Average: average of oocytes 1-7; for Raw data (Responses in nA), unitary compounds of Indoles 1, Alcohols 1, Alcohols 3 / Normalized response, unitary compounds of Indoles 1, Alcohols 1, Alcohols 3: individual oocytes 1-7; for Normalized response, unitary compounds of Indoles 1, Alcohols 1, Alcohols 3: normalized per oocyte
T1 sequence (Q16Z13 1-389): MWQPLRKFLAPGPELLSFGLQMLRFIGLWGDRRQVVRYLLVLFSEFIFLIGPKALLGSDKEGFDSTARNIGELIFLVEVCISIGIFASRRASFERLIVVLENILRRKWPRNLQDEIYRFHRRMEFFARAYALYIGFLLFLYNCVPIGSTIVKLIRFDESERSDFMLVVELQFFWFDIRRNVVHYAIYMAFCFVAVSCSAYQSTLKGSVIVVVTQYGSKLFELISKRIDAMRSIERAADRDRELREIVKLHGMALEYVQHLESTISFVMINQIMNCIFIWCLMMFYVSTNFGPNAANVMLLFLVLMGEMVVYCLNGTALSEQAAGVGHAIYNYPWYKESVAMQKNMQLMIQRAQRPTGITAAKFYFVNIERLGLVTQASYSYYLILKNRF
T1 sequence (Q178U6 1-478 partner): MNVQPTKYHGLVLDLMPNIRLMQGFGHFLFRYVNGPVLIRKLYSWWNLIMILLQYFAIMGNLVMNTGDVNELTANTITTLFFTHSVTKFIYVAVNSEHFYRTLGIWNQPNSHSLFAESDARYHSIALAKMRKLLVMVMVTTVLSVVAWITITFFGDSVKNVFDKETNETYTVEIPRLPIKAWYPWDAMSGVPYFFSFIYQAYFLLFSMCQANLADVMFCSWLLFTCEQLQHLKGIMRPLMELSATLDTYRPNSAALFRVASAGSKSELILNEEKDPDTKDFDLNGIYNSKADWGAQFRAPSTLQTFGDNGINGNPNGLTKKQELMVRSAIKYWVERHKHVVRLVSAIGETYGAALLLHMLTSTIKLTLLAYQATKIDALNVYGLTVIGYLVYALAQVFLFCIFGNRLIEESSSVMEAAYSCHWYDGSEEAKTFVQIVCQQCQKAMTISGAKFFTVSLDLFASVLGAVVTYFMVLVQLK
From the text: (§1) The coding regions of ten AaegOR genes of interest (S3 File) and AaegOrco were synthesized by Twist Bioscience (San Francisco, CA, USA) and cloned into the pENTR plasmid. The Gateway LR directional cloning system (Invitrogen Corp., Carlsbad, CA, USA) was utilized to subclone AaegOR coding regions into the pSP64t-RFA oocyte expression plasmid. Plasmids were purified using the GeneJet Plasmid Miniprep Kit (ThermoFisher Scientific, Waltham, MA, USA). Purified plasmids were sequenced in both directions to confirm coding regions.
(§2) Chemical compounds (S6 File) used in the deorphanization of AaegORs were purchased from Acros Organics (Morris, NJ, USA), Alfa Aesar (Ward Hill, MA, USA), and ThermoFisher Scientific (Waltham, MA, USA) at the highest purity available. Compounds were stored as 1M stocks in 100% DMSO. Serial dilutions of each compound were prepared in 10% DMSO and blended by chemical class.
(§3) pSP64t-RFA: AaegOR clones were linearized using Xbal, and cRNAs were synthesized using the mMESSAGE mMACHINE ® SP6 kit (Life Technologies, Carlsbad, CA, USA). Xenopus laevis stage V-VII oocytes purchased from Xenopus1 (Dexter, MI, USA) were stored at 18°C in Incubation medium (ND96 96 with 5% dialyzed horse serum, 50μg/mL gentamycin, 100μg/mL streptomycin, 100μg/mL penicillin, and 550μg/mL sodium pyruvate). 30nL of cRNA was injected into multiple oocytes using a microinjection syringe pump (World Precision Instruments, Sarasota, FL, USA) maintained at 18°C for 48–72 hrs. Odorant blends were perfused across individual oocytes for 10–15 seconds, held at a resting membrane potential of -80 mV using an OC-725C oocyte clamp (Warner Instruments, LLC, Hamden, CT, USA). Induced currents were measured indirectly using the two-electrode voltage clamp technique (TEVC). Following each stimulus, currents were allowed to return to baseline before further stimulation. Data was captured using the Digidata 1550 B digitizer and PClamp10 software (Molecular Devices, San Jose, CA, USA). Concentration-response curves were generated by perfusing unitary odorants over oocytes at increasing concentrations from [10^-3M] to [10^-9M]. Data were analyzed using GraphPad Prism 8 (GraphPad Software Inc., La Jolla, CA, USA). At least two biological replicates were conducted at each concentration and for each compound. Data for at least seven oocytes responding to each compound was analyzed (S7 File).

AaegOR31 = target: T2, AaegOR31 (Aedes aegypti, UniProt Q16JU0); assay: Two-electrode voltage clamp of Xenopus laevis oocytes expressing AaegOR31/Orco (blends, unitary compounds, concentration-response); details: for Normalized response, Average, Alcohols 1 unitary compounds / Raw Data (Responses in nA), Alcohols 1 unitary compounds / Normalized response, Alcohols 1 unitary compounds / Raw Data (Responses in nA), concentration-response: AaegOR31; for Normalized response, Average, Alcohols 1 unitary compounds / Raw Data (Responses in nA), Alcohols 1 unitary compounds / Normalized response, Alcohols 1 unitary compounds: compounds of blend Alcohols 1; for Normalized response, Average, Alcohols 1 unitary compounds: average of 8 oocytes; for Raw Data (Responses in nA), Alcohols 1 unitary compounds / Normalized response, Alcohols 1 unitary compounds: individual oocytes (Oocyte 1-8); for Normalized response, Alcohols 1 unitary compounds: normalized to the strongest compound per oocyte; for Raw Data (Responses in nA), concentration-response: individual oocytes (Oocyte 1-10)
T2 sequence (Q16JU0 1-381): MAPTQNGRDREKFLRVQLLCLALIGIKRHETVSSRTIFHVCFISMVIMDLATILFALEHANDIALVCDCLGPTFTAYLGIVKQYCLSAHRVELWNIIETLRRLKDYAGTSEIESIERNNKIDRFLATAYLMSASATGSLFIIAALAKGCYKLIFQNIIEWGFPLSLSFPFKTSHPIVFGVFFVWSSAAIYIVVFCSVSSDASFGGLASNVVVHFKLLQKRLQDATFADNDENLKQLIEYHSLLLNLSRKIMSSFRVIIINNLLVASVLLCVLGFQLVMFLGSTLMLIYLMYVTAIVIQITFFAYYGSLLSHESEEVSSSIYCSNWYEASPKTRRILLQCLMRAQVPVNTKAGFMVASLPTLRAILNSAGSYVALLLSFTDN
T2 sequence (Q178U6 1-478 partner): T1 sequence (Q178U6 1-478 partner)
From the text: as §1, §2, §3

AaegOR28 = target: T3, AaegOR28 (Aedes aegypti, UniProt Q0IGE1); assay: Two-electrode voltage clamp of Xenopus laevis oocytes expressing AaegOR28/Orco (blends, unitary compounds, concentration-response); details: AaegOR28, compounds of blend Alcohols 3; for Raw Data (Responses in nA), Alcohols 3 unitary compounds: individual oocytes 1-10
T3 sequence (Q0IGE1 1-394): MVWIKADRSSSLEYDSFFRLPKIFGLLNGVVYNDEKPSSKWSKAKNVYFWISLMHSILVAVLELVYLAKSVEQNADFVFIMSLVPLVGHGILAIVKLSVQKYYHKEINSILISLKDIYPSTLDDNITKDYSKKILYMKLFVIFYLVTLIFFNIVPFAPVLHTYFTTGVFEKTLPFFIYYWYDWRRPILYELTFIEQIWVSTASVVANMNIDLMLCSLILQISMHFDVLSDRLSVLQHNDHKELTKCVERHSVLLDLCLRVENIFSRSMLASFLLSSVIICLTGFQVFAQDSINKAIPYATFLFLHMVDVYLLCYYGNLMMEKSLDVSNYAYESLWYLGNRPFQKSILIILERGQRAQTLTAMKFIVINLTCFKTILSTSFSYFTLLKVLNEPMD
T3 sequence (Q178U6 1-478 partner): T1 sequence (Q178U6 1-478 partner)
From the text: as §1, §2, §3

Row | Structure (SMILES) | Normalized response, unitary compounds, Average (AaegOR13) | Raw data (Responses in nA), unitary compounds of Indoles 1, Alcohols 1, Alcohols 3 (AaegOR13) | Normalized response, unitary compounds of Indoles 1, Alcohols 1, Alcohols 3 (AaegOR13) | Normalized response, Average, Alcohols 1 unitary compounds (AaegOR31) | Raw Data (Responses in nA), Alcohols 1 unitary compounds (AaegOR31) | Normalized response, Alcohols 1 unitary compounds (AaegOR31) | also measured
1 | CCCCO [n-butanol] | 0.0 | 0.0 nA | 0.0 | 0.0 | 0.0 nA | 0.0 | 
2 | CC(C)(C)c1ccc(O)cc1 [4-tert butylphenol] |  |  |  |  | 0.0 nA (7×) and 10.0 nA |  | 
3 | CC(C)O [2-propanol] | 0.0 | 0.0 nA | 0.0 | 10.7 | 10.0 nA and 20.0 nA and 15.0 nA and 0.0 nA (5×) | 5.9 and 50.0 and 30.0 and 0.0 (5×) | 
4 | CC1CCC(C(C)C)C(O)C1 (racemic) [DL-menthol] |  | 0.0 nA (4×) and 30.0 nA and 10.0 nA and 5.0 nA |  |  | 5.0 nA (2×) and 0.0 nA (6×) |  | 
5 | Cc1cccc(O)c1 [m-cresol] |  | 0.0 nA and 75.0 nA and 25.0 nA (2×) and 40.0 nA (2×) and 45.0 nA |  |  | 15.0 nA and 0.0 nA (7×) |  | 
6 | C=C[C@@](C)(O)CCC=C(C)C [(S)-(+)-linalool] |  |  |  |  |  |  | Normalized response, Average, Alcohols 3 unitary compounds (AaegOR28; average of 10 oocytes): 19.1; Raw Data (Responses in nA), Alcohols 3 unitary compounds (AaegOR28): 10 nA (2×) and 5 nA (5×) and 0 nA and 15 nA (2×); Normalized response, Alcohols 3 unitary compounds (AaegOR28; individual oocytes 1-10, normalized to largest response of each oocyte): 33.3 and 14.3 and 25.0 and 0.0 and 30.0 and 16.7 (2×) and 12.5 and 22.2 and 20
7 | Cc1ccccc1O [o-cresol] |  | 0.0 nA and 110.0 nA and 25.0 nA and 35.0 nA and 50.0 nA and 45.0 nA and 15.0 nA |  |  | 0.0 nA |  | 
8 | OCC(O)CO [glycerol] |  | 0.0 nA |  |  | 5.0 nA (2×) and 0.0 nA (6×) |  | 
9 | CC(C)=CCC/C(C)=C/CC/C(C)=C/CO [farnesol] |  | 0.0 nA |  |  | 170.0 nA and 40.0 nA and 50.0 nA and 120.0 nA and 340.0 nA and 75.0 nA and 80.0 nA and 270.0 nA |  | pEC50 (AaegOR31; AaegOR31/Orco expressing oocytes, TEVC, concentration-response of normalized current): 4.84; Raw Data (Responses in nA), concentration-response (AaegOR31; concentration 1e-7 M): 0.0 nA (4×) and 20.0 nA and 30.0 nA (2×) and 10.0 nA (2×) and 5.0 nA; Raw Data (Responses in nA), concentration-response (AaegOR31; concentration 5e-7 M): 5.0 nA (3×) and 10.0 nA (4×) and 20.0 nA and 0.0 nA and 15.0 nA; Raw Data (Responses in nA), concentration-response (AaegOR31; concentration 1e-6 M): 20.0 nA (6×) and 0.0 nA (2×) and 10.0 nA (2×); Raw Data (Responses in nA), concentration-response (AaegOR31; concentration 5e-6 M): 90.0 nA (2×) and 80.0 nA and 30.0 nA and 50.0 nA (2×) and 20.0 nA (2×) and 40.0 nA and 100.0 nA; Raw Data (Responses in nA), concentration-response (AaegOR31; concentration 1e-5 M): 130.0 nA (2×) and 120.0 nA (2×) and 55.0 nA and 90.0 nA and 160.0 nA and 45.0 nA and 50.0 nA and 170.0 nA; Raw Data (Responses in nA), concentration-response (AaegOR31; concentration 5e-5 M): 190.0 nA and 320.0 nA and 270.0 nA and 130.0 nA and 260.0 nA and 430.0 nA and 150.0 nA and 100.0 nA and 290.0 nA and 360.0 nA; Raw Data (Responses in nA), concentration-response (AaegOR31; concentration 0.0001 M): 160.0 nA and 440.0 nA and 280.0 nA and 210.0 nA and 270.0 nA and 400.0 nA and 170.0 nA and 80.0 nA and 320.0 nA and 430.0 nA
10 | Cc1ccc(O)cc1 [p-cresol] |  | 20.0 nA and 290.0 nA and 85.0 nA and 140.0 nA and 165.0 nA and 135.0 nA and 90.0 nA |  |  | 0.0 nA |  | 
11 | CO [methanol] | 0.0 | 0.0 nA | 0.0 | 0.0 | 0.0 nA | 0.0 | 
12 | CCO [ethanol] | 0.0 | 0.0 nA | 0.0 | 0.0 | 0.0 nA | 0.0 | 
13 | CC(C)=CCC/C(C)=C/CO [Geraniol] |  |  |  |  |  |  | Raw Data (Responses in nA), Alcohols 3 unitary compounds (AaegOR28): 0 nA
